What follows are molecules tested on HEK293 DNA-PK KO cells (assay: HDR levels by GFP-to-BFP conversion assay in DNA-PK KO cells clone 22 treated with small molecule inhibitors). Conditions: 1 μM inhibitor added with Cas9, guide RNA and ssDNA encoding BFP; DNA-PK KO cells clone 22; drugs washed off 24 hours later.
Type: cell-based, human
Protocol: Eighteen targets were targeted with 38 drugs. […] Small molecule inhibitors were added in the media simultaneously with the introduction of Cas9, guide RNA and single-stranded DNA (ssDNA) encoding BFP. HDR levels were measured with the BFP-to-GFP assay. […] Precise repair levels are shown as a % of BFP+ cells over DMSO.
DNA-PK KO cells were tested with the noted compounds at compounds at 10 μM, 5 μM, 1 μM, 0.5 μM, 0.1 μM, and 0.01 μM, as for FIGS. 4 and 6. HDR levels are shown as a % of BFP+ cells over DMSO 24 hours after drug treatment.
(§1) To study the efficiency of HDR in human cells we used the green fluorescent protein (GFP) to blue fluorescent protein (BFP) pair, where conversion from GFP to BFP requires editing of 2 nucleotides. The CRISPR screens were performed on a K562 human cell line stably expressing a green fluorescent protein (GFP). GFP was targeted with Cas9, guide RNA targeting GFP, and a single stranded DNA (ssDNA) encoding BFP. Efficiency of HDR in cells carrying specific genetic perturbations (genetic inhibition or activation) were identified using fluorescence-activated cell sorting (FACS), followed by guide RNA recovery and quantification using next-generation sequencing (NGS).
The small molecules were tested on DNA-PK knockout HET293 cells at concentrations of 10 μM or 1 μM. Eighteen targets were targeted with 38 drugs. […] Drug validations were performed in DNA-PK KO cells clone 22 treated with dimethyl sulfoxide (DMSO) or 1 or 10 μM of the indicated inhibitors. HDR levels were measured with the BFP-to-GFP assay. Small molecule inhibitors were added in the media simultaneously with the introduction of Cas9, guide RNA and single-stranded DNA (ssDNA) encoding BFP. The drugs were washed off 24 hours later.
The compounds shown in FIG. 6 were further tested for dose dependent effects. The same cells as described above were treated with the noted compounds at compounds at 10 μM, 5 μM, 1 μM, 0.5 μM, 0.1 μM, and 0.01 μM. HDR levels are shown as a % of BFP+ cells over DMSO 24 hours after drug treatment (FIG. 7).
`Nc1ncnc2c1c(COc1cccc(Cl)c1)nn2C1CCOCC1` [PF 4800567] was tested, and the “HDR levels (% of BFP+ cells over DMSO)” value was “increased HDR levels”. With `O=C(O)c1ccc2cc(-c3ccc(O)c(C45CC6CC(CC(C6)C4)C5)c3)ccc2c1` [CD437] the “HDR levels (% of BFP+ cells over DMSO)” value was “increased HDR levels”. For `Cc1nc(Nc2n[nH]c3c2CN(C(=O)N[C@H](CN(C)C)c2ccccc2)C3(C)C)c2sccc2n1` [PF-3758309], the “HDR levels (% of BFP+ cells over DMSO)” value was “increased HDR levels”. `NC(=O)/C(=C/n1cnc(-c2cc(C(F)(F)F)cc(C(F)(F)F)c2)n1)c1cncnc1` [Eltanexor (KPT-8602), Eltanexor] was tested, and the “HDR levels (% of BFP+ cells over DMSO)” value was “increased HDR levels”. With `O=C(/C=C\n1cnc(-c2cc(C(F)(F)F)cc(C(F)(F)F)c2)n1)N1CC(F)(F)C1` [KPT-276] the “HDR levels (% of BFP+ cells over DMSO)” value was “increased HDR levels”. `Cc1ncc(CCCN(C)C)cc1Nc1ncc2c(n1)-c1ccc(C(F)(F)F)cc1NC(=S)C2` [MLN0905] was tested, and the “HDR levels (% of BFP+ cells over DMSO)” value was “increased HDR levels”. In the case of `CCn1cc(-c2cccc(C(F)(F)F)c2)c2sc(C(=N)NC3CCS(=O)(=O)CC3)cc2c1=O` [I-BRD9], the “HDR levels (% of BFP+ cells over DMSO)” value is reported as “increased HDR levels”. `COc1cc(-c2cn(C)c(=O)c3cnccc23)cc(OC)c1CN(C)C` [BI-7273] was tested, and the “HDR levels (% of BFP+ cells over DMSO)” value was “increased HDR levels”. For `CC(=O)Nc1nc(-c2cccc(NS(=O)(=O)c3cccc4c(N(C)C)cccc34)c2)cs1` [HA15], the “HDR levels (% of BFP+ cells over DMSO)” value was “increased HDR levels”. With `COc1cc(Nc2ncc3c(n2)-c2ccc(Cl)cc2C(c2c(F)cccc2OC)=NC3)ccc1C(=O)O` [Alisertib] the “HDR levels (% of BFP+ cells over DMSO)” value was “increased HDR levels”. For `C=CC(=O)Nc1ccc(C(=O)Nc2n[nH]c3c2CN(C(=O)N[C@H](CN(C)C)c2ccccc2)C3(C)C)cc1` [YKL-5-124], the “HDR levels (% of BFP+ cells over DMSO)” value was “increased HDR levels”. `COC(=O)[C@H](CCSC)NC(=O)c1ccc(NC[C@@H](N)CS)cc1-c1ccccc1.Cl` [FTI 277 HCl] was tested, and the “HDR levels (% of BFP+ cells over DMSO)” value was “increased HDR levels”. For `O=C(O)Cn1c2c(c3cc(F)ccc31)CN(C(=O)c1cccc3ccccc13)CC2` [Setipiprant], the “HDR levels (% of BFP+ cells over DMSO)” value was “increased HDR levels”. In the case of `N#Cc1ccc(COC[C@H]2O[C@@H](n3c(NCc4ccc(Cl)c(Cl)c4)nc4c(N)ncnc43)[C@H](O)[C@@H]2O)cc1` [VER155008], the “HDR levels (% of BFP+ cells over DMSO)” value is reported as “increased HDR levels”. For `CO[C@@H]1[C@@H](OC(N)=O)[C@@H](O)[C@H](Oc2ccc3c(O)c(NC(=O)c4ccc(O)c(CC=C(C)C)c4)c(=O)oc3c2C)OC1(C)C` [Novobiocin], the “HDR levels (% of BFP+ cells over DMSO)” value was “increased HDR levels”. In the case of `c1ccc(CNc2nc(NCc3ccccc3)c3ccccc3n2)cc1` [DBeQ], the “HDR levels (% of BFP+ cells over DMSO)” value is reported as “increased HDR levels”. `Nc1nccc(-c2c(-c3ccc(F)cc3)ncn2C2CCCCC2)n1` [PF-670462] was tested, and the “HDR levels (% of BFP+ cells over DMSO)” value was “increased HDR levels”. With `Cc1cc2c(C(N)=O)cccc2n1-c1nc2c(c(NCc3ccccc3)n1)COCC2` [CB-5083] the “HDR levels (% of BFP+ cells over DMSO)” value was “increased HDR levels”. In the case of `O=C(O)/C=C/c1ccc(-c2ccc(O)c(C34CC5CC(CC(C5)C3)C4)c2)cc1` [ST1926], the “HDR levels (% of BFP+ cells over DMSO)” value is reported as “increased HDR levels”. In the case of `Cc1cc(OCc2nnc(SC3CCCC3)n2-c2cccnc2)ccc1-c1ccc(S(C)(=O)=O)cc1` [NMS-873], the “HDR levels (% of BFP+ cells over DMSO)” value is reported as “increased HDR levels”.

Same assay, conditions: 10, 5, 1, 0.5, 0.1 and 0.01 μM; DNA-PK KO cells; 24 hours after drug treatment
`O=C(/C=C\n1cnc(-c2cc(C(F)(F)F)cc(C(F)(F)F)c2)n1)N1CC(F)(F)C1` [KPT-276] was tested, and the “BFP+ increase over DMSO (dose dependent effect on HDR)” value was “promote HDR at low concentration”. `COc1ccc(CCNCc2ccc(OCc3ccc(Cl)nc3)c(OC)c2)cc1OC.Cl` [SBE 13 HCl] was tested, and the “BFP+ increase over DMSO (dose dependent effect on HDR)” value was “dose-dependent increase in HDR”.

These molecules were tested on HEK293 DNA-PK KO cells (assay: MTT cytotoxicity assay after 24 hours drug treatment). Conditions: 10, 5, 1, 0.5, 0.1 and 0.01 μM.
Type: cell-based, human
Protocol: FIG. 8 is a heat plot showing cytotoxicity after drug treatment. HEK293 DNA-PK KO cells were treated with the noted compounds at 10 μM, 5 μM, 1 μM, 0.5 μM, 0.1 μM, and 0.01 μM in triplicate. After 24 hours an MTT assay was performed.
The same compounds were also tested for cytotoxicity at 10 μM, 5 μM, 1 μM, 0.5 μM, 0.1 μM, and 0.01 μM.
With `O=C(/C=C\n1cnc(-c2cc(C(F)(F)F)cc(C(F)(F)F)c2)n1)N1CC(F)(F)C1` [KPT-276] the “cytotoxicity over DMSO (MTT, viable cells)” value was “toxic at high concentration”. For `COc1ccc(CCNCc2ccc(OCc3ccc(Cl)nc3)c(OC)c2)cc1OC.Cl` [SBE 13 HCl], the “cytotoxicity over DMSO (MTT, viable cells)” value was “low toxicity”.

These molecules were tested on human K562 PRKDC−/− cells (assay: Precise repair (% BFP conversion) after SpCas9 RNP, EGFP-targeting sgRNA and EBFP ssODN nucleofection). Conditions: 1 μM, DMSO control 56%.
Type: cell-based
Protocol: To investigate the effect of combinatorial inhibition using a DNA-PK inhibitor and another inhibitor on HDR gene editing rates, human K562 PRKDC−/− cells (a DNA Knock Out cell line) were nucleofected with SpCas9 RNPs with an EGFP-targeting sgRNA and EBFP ssODN and then incubated with 1 μM (micro molar) concentration ST1926 (an inhibitor of POLA1) or DMSO treated (control). Gene editing rates are expressed in percentages and classified as % precise repair (% BFP conversion). The combination of ST1926 treatment in PRKDC-null human cells boosted precise editing from 56% to 73%.
For `O=C(O)/C=C/c1ccc(-c2ccc(O)c(C34CC5CC(CC(C5)C3)C4)c2)cc1` [ST1926], the “% precise repair (% BFP conversion)” value was 73%.

Each molecule was assayed on RFC5, TUBA1B, NEDD8, LIG4, POLQ and RAD51 knock-out lines (assay: HDR levels by cell sorting in gene knock out cell lines treated with DNA-PK inhibitor). Conditions: 2 μM DNA-PK inhibitor in RFC5, TUBA1B.
Type: cell-based, human
Protocol: Knock out cell lines of the indicated genes were treated with 2 μM of DNA-PK inhibitor. HDR levels were determined by cell sorting.
The inventors identified regulators of homologous directed repair (HDR) that synergize with inhibition of non-homologous end-joining (NHEJ) and further increase HDR levels in human cells. The inventors targeted all of the 20,000 genes in the human genome using a pair of CRISPR-based screens to identify genes that, upon loss (knock-out) or gain (overexpression), increase precise gene repair. Using a CRISPR inhibition screen, a ranked list of the effect of loss of every human gene on precise gene repair. In a CRISPR activation screen, we produced a ranked list of the effect of gain of every human gene on precise gene repair. Combinatorial effects of multiple gene/drug perturbations on boosting precise gene repair were also examined. […]
as §1, with “The CRISPR screens were performed on a K562 human cell line stably expressing a green fluorescent protein (GFP). GFP was targeted with Cas9, guide RNA targeting GFP, and a single stranded DNA (ssDNA) encoding BFP.” left out
HDR levels were determined by cell sorting.
`O=c1cc(N2CCOCC2)oc2c(-c3cccc4c3sc3ccccc34)cccc12` [NU7441] was tested, and the HDR levels was “significant increase in the HDR levels”.
